Measured values reported in publication PMC12549564, “A thermo-sensitive peptide hydrogel loaded with paclitaxel and antimony nanosheets for synergistic photothermal-chemotherapeutic treatment of breast cancer” (Frontiers in Pharmacology, 2025).
Values belong to the compound of their own block, whether it stands above or below them.

Assays:
Format in all cases: physicochemical
[1] = PTX release from hydrogel in vitro; conditions: hydrogel 20 mg/mL TSP-5, 2 mg/mL PTX, 0.6 mg/mL AM, PBS pH 7.4, 37 °C, 120 rpm, 7 days, HPLC, n = 3
Procedure: Gel sample (100 μL; 20 mg/mL TSP-5, 2 mg/mL PTX, 0.6 mg/mL AM) was prepared at 37 °C in a 1.5 mL EP tube. PBS (pH 7.4) was used to carefully wash the surface of the sample, and the cleaning solution was collected. The content of PTX not encapsulated was then determined by HPLC, and the encapsulation rate was calculated according to the formula: Encapsulation rate (%) = (PTX total –PTX in cleaning solution )/PTX total × 100%.
1 mL PBS (pH 7.4) was added as release medium, and the EP tube was placed in a thermostatic oscillator (120 rpm, 37 °C). All the release solution were carefully collected at different time points (0.5, 2, 4, 8, 12, 24, 48, 72, 96, 120, 144 and168 h), and the same volume of fresh release media was added. For the laser group, samples were irradiated (808 nm, 1 W/cm^2, 5 min) before each sampling. PTX release was quantified by HPLC.

[2] = Temperature study: gelation of TSP-5, vial inversion; design: key: L: liquid; VL: viscous liquid; SG: stable gel; UG: unstable gel; conditions: TSP-5 20 mg/mL, water bath 40 °C
Procedure: (§1) The gelation behavior of TSP-5 was evaluated at various concentrations, temperatures, and AM concentrations. Gel formation was assessed via vial inversion.
(§2) Temperature study: Aqueous solutions of TSP-5 (20 mg/mL) were prepared and then placed in water bath at 30 °C, 37 °C, 40 °C, 45 °C, 50 °C and 55 °C respectively to observe the gelatinization.

[3] = as above; conditions: for Gelation state: TSP-5 aqueous solution 20 mg/mL
Procedure: as §1, §2

[4] = as above; design: key: L: liquid; IS: insoluble; SS: slightly soluble; conditions: TSP-5 20 mg/mL, water bath 30 °C
Procedure: as §1, §2

[5] = Concentration study: solubility of TSP-5 in water; conditions: for Solubility of TSP-5: aqueous solution, pH 7.4, 25 °C
Procedure: Concentration study: At room temperature (25 °C), aqueous solutions of TSP-5 was prepared at concentrations of 15 mg/mL, 20 mg/mL, 25 mg/mL and 30 mg/mL, respectively, and adjusted to pH 7.4 with NaOH (0.5 M) and HCl (0.1 M). Gel formation was assessed via vial inversion.

[6] = AM concentration study: gelation time of TSP-5 loaded with AM; conditions: TSP-5 20 mg/mL
Procedure: as §1
AM concentration study: Aqueous solutions of TSP-5 (20 mg/mL) was prepared at 25 °C and AM suspension of different concentrations (0.2, 0.4, 0.6, 0.8 and 1.0 mg/mL) was added. The sample was then placed in a water bath at 37 °C and 45 °C respectively to observe the gelatinization.

[7] = DLS particle size of TSP-5 hydrogel at different temperatures
[8] = TSP-5 20 mg/mL, water bath 37 °C

Cumulative release of PTX from the hydrogel ([1]; with laser (808 nm, 1 W/cm^2, 5 min before each sampling)): 61.83%
Cumulative release of PTX from the hydrogel ([1]; without laser): 42.81%
Compound: CC(=O)O[C@H]1C(=O)[C@@]2(C)[C@H]([C@H](OC(=O)c3ccccc3)[C@]3(O)C[C@H](OC(=O)[C@H](O)[C@@H](NC(=O)c4ccccc4)c4ccccc4)C(C)=C1C3(C)C)[C@]1(OC(C)=O)CO[C@@H]1C[C@@H]2O [PTX, Paclitaxel]

Gelation state [2]: SG
Gelation: time given for SG (stable gel) [3, 8]: 32 min
Gelation: time given for VL (viscous liquid) [3, 8]: 10 min
Gelation state ([3]; pH 7.4, 37 °C): stable hydrogel
Gelation state ([3]; pH 7.4, 45 °C): completely viscous liquid
Gelation state [4]: L
Solubility of TSP-5 ([5]; peptide 15 mg/mL): L (liquid)
Solubility of TSP-5 ([5]; peptide 20 mg/mL): L (liquid)
Solubility of TSP-5 ([5]; peptide 25 mg/mL): SS (slightly soluble)
Solubility of TSP-5 ([5]; peptide 30 mg/mL): IS (insoluble)
Hydrogel formation ([5]; pH 7.4, 15–30 mg/mL, 25 °C, vial inversion): no hydrogel formation was observed
Gelation time: SG (stable gel) ([6]; AM 0.2 mg/mL, 37 °C): 40 min
Gelation time: VL (viscous liquid) ([6]; AM 0.2 mg/mL, 37 °C): 15 min
Gelation time: UG (unstable gel) ([6]; AM 0.2 mg/mL, 45 °C): 39 min
Gelation time: VL (viscous liquid) ([6]; AM 0.2 mg/mL, 45 °C): 3 min
Gelation time: SG (stable gel) ([6]; AM 0.4 mg/mL, 37 °C): 33 min
Gelation time: VL (viscous liquid) ([6]; AM 0.4 mg/mL, 37 °C): 14 min
Gelation time: UG (unstable gel) ([6]; AM 0.4 mg/mL, 45 °C): 33 min
Gelation time: VL (viscous liquid) ([6]; AM 0.4 mg/mL, 45 °C): 4 min
Gelation time: SG (stable gel) ([6]; AM 0.6 mg/mL, 37 °C): 30 min
Gelation time: VL (viscous liquid) ([6]; AM 0.6 mg/mL, 37 °C): 10 min
Gelation time: UG (unstable gel) ([6]; AM 0.6 mg/mL, 45 °C): 30 min
Gelation time: VL (viscous liquid) ([6]; AM 0.6 mg/mL, 45 °C): 2 min
Gelation time: SG (stable gel) ([6]; AM 0.8 mg/mL, 37 °C): 30 min
Gelation time: VL (viscous liquid) ([6]; AM 0.8 mg/mL, 37 °C): 9 min
Gelation time: UG (unstable gel) ([6]; AM 0.8 mg/mL, 45 °C): 30 min
Gelation time: VL (viscous liquid) ([6]; AM 0.8 mg/mL, 45 °C): 2 min
Hydrodynamic size (DLS) ([7]; 37 °C): ~1,300 nm
Hydrodynamic size (DLS) ([7]; 45 °C): ~350 nm
Compound: Ac-DDIIIVPGVGK-NH2 [TSP-5, Ac-DDIII-VPGVG-K-NH2]
